Assay results published in PubChem BioAssay AID328 (DTP/NCI, 2004).
Values joined by “and” are separate entries in the source; they are usually repeats but may differ in a detail not shown here. Equal values may be shown once. Inconclusive results and toxic doses are left out.

Tested on: BDF1 mice, P388 leukemia ip, median survival T/C
Assay: NCI In Vivo Anticancer Drug Screen. Data for tumor model P388 Leukemia (intraperitoneal) in B6D2F1 (BDF1) mice
Conditions: endpoint: median survival time, higher = longer survival
In short: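 Antitumour effect was judged in vivo: survival in drug-treated mice, normalised to that of vehicle-dosed controls, gives the reported T/C.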

[1] = dose: 50.0 mg/kg/injection, schedule: Q01DX009 (ip), vehicle: Klucel (hydroxypropylcellulose) (HPC)
[2] = dose: 200.0 mg/kg/injection, schedule: Q01DX009 (ip), vehicle: Klucel (hydroxypropylcellulose) (HPC)
[3] = dose: 100.0 mg/kg/injection, schedule: Q01DX001 (ip), vehicle: saline with Tween-80
[4] = dose: 400.0 mg/kg/injection, schedule: Q01DX001 (ip), vehicle: saline with Tween-80
[5] = dose: 100.0 mg/kg/injection, schedule: Q01DX009 (ip), vehicle: saline
[6] = dose: 200.0 mg/kg/injection, schedule: Q01DX009 (ip), vehicle: saline
[7] = dose: 100.0 mg/kg/injection, schedule: Q04DX003 (ip), vehicle: saline with Tween-80
[8] = dose: 200.0 mg/kg/injection, schedule: Q04DX003 (ip), vehicle: saline with Tween-80
[9] = dose: 400.0 mg/kg/injection, schedule: Q04DX003 (ip), vehicle: saline with Tween-80
[10] = dose: 25.0 mg/kg/injection, schedule: Q04DX003 (ip), vehicle: water
[11] = dose: 50.0 mg/kg/injection, schedule: Q04DX003 (ip), vehicle: water
[12] = dose: 100.0 mg/kg/injection, schedule: Q01DX009 (ip), vehicle: saline with Tween-80
[13] = dose: 200.0 mg/kg/injection, schedule: Q01DX009 (ip), vehicle: saline with Tween-80
[14] = dose: 400.0 mg/kg/injection, schedule: Q01DX009 (ip), vehicle: saline with Tween-80
[15] = dose: 25.0 mg/kg/injection, schedule: Q01DX009 (ip), vehicle: saline with Tween-80
[16] = dose: 50.0 mg/kg/injection, schedule: Q01DX009 (ip), vehicle: saline with Tween-80
[17] = dose: 100.0 mg/kg/injection, schedule: Q01DX009 (ip), vehicle: Klucel (hydroxypropylcellulose) (HPC)
[18] = dose: 100.0 mg/kg/injection, schedule: Q04DX003 (ip), vehicle: Klucel (hydroxypropylcellulose) (HPC)
[19] = dose: 200.0 mg/kg/injection, schedule: Q04DX003 (ip), vehicle: Klucel (hydroxypropylcellulose) (HPC)
[20] = dose: 400.0 mg/kg/injection, schedule: Q04DX003 (ip), vehicle: Klucel (hydroxypropylcellulose) (HPC)
[21] = dose: 400.0 mg/kg/injection, schedule: Q01DX009 (ip), vehicle: Klucel (hydroxypropylcellulose) (HPC)

Structure (SMILES): CN(C)c1ccc(/C=C/c2nccc3ccccc23)cc1
- T/C (dose: 0.78 mg/kg/injection, schedule: Q01DX009 (ip), vehicle: saline with Tween-80): 114 % of control
- T/C (dose: 1.56 mg/kg/injection, schedule: Q01DX009 (ip), vehicle: saline with Tween-80): 112 % of control
- T/C (dose: 3.13 mg/kg/injection, schedule: Q01DX009 (ip), vehicle: saline with Tween-80): 102 % of control
- T/C (dose: 6.25 mg/kg/injection, schedule: Q01DX009 (ip), vehicle: saline with Tween-80): 107 % of control and 110 % of control

Structure (SMILES): Nc1ncc(CNc2ccc(C(=O)NC(CCC(=O)O)C(=O)O)cc2)c(N)n1 (stereo not drawn)
- T/C [1]: 89 % of control and 115 % of control
- T/C [2]: 150 % of control

Structure (SMILES): CSc1cc(C(N)=O)c2c(N)nc(SC)nc2n1
- T/C (dose: 25.0 mg/kg/injection, schedule: Q01DX001 (ip), vehicle: saline with Tween-80): 111 % of control
- T/C (dose: 50.0 mg/kg/injection, schedule: Q01DX001 (ip), vehicle: saline with Tween-80): 109 % of control
- T/C [3]: 100 % of control and 111 % of control
- T/C [4]: 100 % of control

Structure (SMILES): CN(C)P(=O)(N(C)C)N(C)CC[N+](C)(C)C
- T/C (dose: 50.0 mg/kg/injection, schedule: Q01DX009 (ip), vehicle: saline): 103 % of control
- T/C [5]: 101 % of control
- T/C [6]: 100 % of control

Structure (SMILES): COC(=O)/C=C/c1ccc([N+](=O)[O-])cc1
- T/C [7]: 118 % of control
- T/C [8]: 113 % of control
- T/C [9]: 109 % of control

Structure (SMILES): NC(=O)C(CO)NC(=O)OCc1ccccc1 (stereo not drawn)
- T/C [10]: 110 % of control
- T/C [11]: 103 % of control
- T/C (dose: 100.0 mg/kg/injection, schedule: Q04DX003 (ip), vehicle: water): 100 % of control
- T/C (dose: 200.0 mg/kg/injection, schedule: Q04DX003 (ip), vehicle: water): 100 % of control
- T/C (dose: 400.0 mg/kg/injection, schedule: Q04DX003 (ip), vehicle: water): 103 % of control

Structure (SMILES): CC1(c2ccc(-c3ccccc3)cc2)NC(=O)NC1=O (stereo not drawn)
- T/C [12]: 91 % of control
- T/C [13]: 95 % of control
- T/C [14]: 88 % of control

Structure (SMILES): O=C(CC(=O)C(F)(F)C(F)(F)C(F)(F)F)c1csc2ccccc12
- T/C (dose: 6.25 mg/kg/injection, schedule: Q01DX009 (ip), vehicle: Klucel (hydroxypropylcellulose) (HPC)): 91 % of control
- T/C (dose: 12.5 mg/kg/injection, schedule: Q01DX009 (ip), vehicle: Klucel (hydroxypropylcellulose) (HPC)): 95 % of control
- T/C (dose: 25.0 mg/kg/injection, schedule: Q01DX009 (ip), vehicle: Klucel (hydroxypropylcellulose) (HPC)): 95 % of control
- T/C [15]: 95 % of control
- T/C [1]: 100 % of control
- T/C [16]: 100 % of control
- T/C [17]: 115 % of control
- T/C [12]: 91 % of control
- T/C [5]: 115 % of control
- T/C [18]: 104 % of control
- T/C [19]: 104 % of control
- T/C [20]: 109 % of control

Structure (SMILES): COC(=O)CCN(c1ccccc1)S(=O)(=O)c1ccc(C)cc1
- T/C [17]: 104 % of control
- T/C [18]: 100 % of control
- T/C [2]: 104 % of control
- T/C [19]: 100 % of control
- T/C [21]: 95 % of control
- T/C [20]: 100 % of control

Structure (SMILES): O=C(O)c1sccc1-c1cccc2ccccc12
- T/C (dose: 50.0 mg/kg/injection, schedule: Q01DX001 (ip), vehicle: saline): 104 % of control
- T/C (dose: 100.0 mg/kg/injection, schedule: Q01DX001 (ip), vehicle: saline): 100 % of control
- T/C (dose: 200.0 mg/kg/injection, schedule: Q01DX001 (ip), vehicle: saline): 95 % of control

Structure (SMILES): CC(=O)[C@H]1CC[C@H]2[C@@H]3C[C@H](C)C4=CC(=O)CC[C@]4(C)[C@H]3[C@@H](O)C[C@]12C
- T/C [7]: 107 % of control
- T/C [8]: 100 % of control

Structure (SMILES): O=c1oc2ccccc2c2c1Cc1c(oc3ccc4ccccc4c3c1=O)O2
- T/C [16]: 91 % of control
- T/C [12]: 95 % of control
- T/C [13]: 92 % of control

Structure (SMILES): Clc1cccc(Cl)c1Br
- T/C (dose: 50.0 mg/kg/injection, schedule: Q04DX003 (ip), vehicle: gum acacia): 95 % of control
- T/C [17]: 100 % of control
- T/C [18]: 88 % of control
- T/C (dose: 100.0 mg/kg/injection, schedule: Q04DX003 (ip), vehicle: gum acacia): 108 % of control
- T/C [2]: 109 % of control
- T/C (dose: 200.0 mg/kg/injection, schedule: Q04DX003 (ip), vehicle: gum acacia): 100 % of control
- T/C [21]: 90 % of control
- T/C [20]: 115 % of control

Structure (SMILES): O=[N+]([O-])CC(O)C(O)C(O)C(O)CO (stereo not drawn)
- T/C [5]: 95 % of control
- T/C (dose: 100.0 mg/kg/injection, schedule: Q04DX003 (ip), vehicle: saline): 104 % of control
- T/C [6]: 100 % of control
- T/C (dose: 200.0 mg/kg/injection, schedule: Q04DX003 (ip), vehicle: saline): 100 % of control
- T/C (dose: 400.0 mg/kg/injection, schedule: Q01DX009 (ip), vehicle: saline): 100 % of control
- T/C (dose: 400.0 mg/kg/injection, schedule: Q04DX003 (ip), vehicle: saline): 104 % of control

Structure (SMILES): CCCC(=O)Oc1ccc2c(C)cc(=O)oc2c1
- T/C [7]: 104 % of control
- T/C [8]: 90 % of control
- T/C [9]: 100 % of control

Structure (SMILES): OCC(O)C(O)C(O)C(O)C=Nc1ccc(/C=C/c2ccnc3ccccc23)cc1 (stereo not drawn)
- T/C [16]: 109 % of control
- T/C [12]: 105 % of control
- T/C [13]: 112 % of control

Structure (SMILES): Cc1cc(C)c(NC(=O)c2ccccc2Cl)c(C)c1
- T/C [7]: 100 % of control
- T/C [8]: 109 % of control
- T/C [9]: 95 % of control

Structure (SMILES): c1ccc(CN2CCN(Cc3ccccc3)C2c2ccccc2)cc1
- T/C [15]: 103 % of control
- T/C [16]: 97 % of control
- T/C (dose: 50.0 mg/kg/injection, schedule: Q04DX003 (ip), vehicle: saline with Tween-80): 107 % of control
- T/C [12]: 97 % of control
- T/C [7]: 107 % of control
- T/C [13]: 104 % of control
- T/C [8]: 103 % of control
- T/C [14]: 106 % of control
- T/C [9]: 96 % of control

Structure (SMILES): C/C(=N\O)c1ccc2ccc3ccccc3c2c1
- T/C (dose: 50.0 mg/kg/injection, schedule: Q04DX003 (ip), vehicle: saline sonified): 104 % of control
- T/C (dose: 100.0 mg/kg/injection, schedule: Q04DX003 (ip), vehicle: saline sonified): 104 % of control
- T/C (dose: 200.0 mg/kg/injection, schedule: Q04DX003 (ip), vehicle: saline sonified): 100 % of control

Structure (SMILES): COc1ccc(C2=NNC(=O)OC2c2ccccc2)cc1 (stereo not drawn)
- T/C [15]: 92 % of control and 102 % of control
- T/C [16]: 91 % of control and 96 % of control and 99 % of control
- T/C [12]: 100 % of control and 110 % of control
- T/C [13]: 91 % of control and 102 % of control and 105 % of control

Structure (SMILES): CC(Nc1ccc(Br)cc1[N+](=O)[O-])C(=O)O (stereo not drawn)
- T/C [15]: 122 % of control
- T/C [16]: 94 % of control
- T/C [12]: 112 % of control
- T/C [13]: 114 % of control

Structure (SMILES): Nc1nc2nsnc2nc1N
- T/C (dose: 1.56 mg/kg/injection, schedule: Q01DX009 (ip), vehicle: water): 111 % of control
- T/C (dose: 3.12 mg/kg/injection, schedule: Q01DX009 (ip), vehicle: water): 111 % of control
- T/C (dose: 3.12 mg/kg/injection, schedule: Q04DX003 (ip), vehicle: water): 100 % of control
- T/C (dose: 6.25 mg/kg/injection, schedule: Q01DX009 (ip), vehicle: water): 100 % of control
- T/C (dose: 6.25 mg/kg/injection, schedule: Q04DX003 (ip), vehicle: water): 110 % of control
- T/C (dose: 12.5 mg/kg/injection, schedule: Q01DX009 (ip), vehicle: water): 100 % of control
- T/C (dose: 12.5 mg/kg/injection, schedule: Q04DX003 (ip), vehicle: water): 100 % of control
- T/C (dose: 25.0 mg/kg/injection, schedule: Q01DX009 (ip), vehicle: water): 102 % of control
- T/C [10]: 110 % of control
- T/C (dose: 50.0 mg/kg/injection, schedule: Q01DX009 (ip), vehicle: water): 111 % of control
- T/C [11]: 115 % of control
- T/C (dose: 100.0 mg/kg/injection, schedule: Q01DX009 (ip), vehicle: water): 118 % of control

Structure (SMILES): O=C1N/C(=N\O)S/C1=C/c1ccc2c(c1)OCO2
- T/C [3]: 89 % of control
- T/C (dose: 200.0 mg/kg/injection, schedule: Q01DX001 (ip), vehicle: saline with Tween-80): 95 % of control
- T/C [4]: 105 % of control

Structure (SMILES): CCOC(=O)C(Cc1ccccc1Cl)(Cc1ccccc1Cl)c1ccccc1
- T/C [12]: 106 % of control
- T/C [13]: 100 % of control

Structure (SMILES): O=C(Nc1ccc2c(c1)C(Br)c1ccccc1-2)C(F)(F)F (stereo not drawn)
- T/C [1]: 90 % of control
- T/C [17]: 100 % of control
- T/C [2]: 118 % of control
